Experimental data reported in US3995055A, “Method for treating peptic ulcers” (priority 1975, dated 1976).
Entries after “also recorded” stand apart in the source; their conditions may differ. Structures can show the parent of a compound that is named as a salt.

Columns and labels:
Shay ulcers [1] = assay: Shay Ulcer Test by Intraperitoneal Administration; assay type: in vivo, Donryu rats; conditions: Rattus norvegicus, ip, 18 h, read-out: Inhibitory Ratio; for inhibition in vivo at 350 mg/kg: 350 mg/Kg intraperitoneally in 0.5% CMC
Protocol: (§1) Donryu rats each weighing 200 to 240 g (six in each group) were starved for 48 hours, and ligated at a portion of the duodenum near the pylorus by the method of Shay et al (see Gastroenterology, 54, 43 (1945)). Immediately after the ligation, DV-1006 was orally administered to the rats at a dosage of 300 mg/Kg. After 18 hours, the abdomen of each of the rats was incised, and the stomach was removed.
Some typical compounds of formula (I) were tested on Shay ulcers in the same way as described in Example 2 except that each of the compounds was suspended in a 0.5% aqueous solution of carboxymethyl cellulose and administered intraperitoneally.

Shay ulcers [2] = assay: Shay Ulcer Test (oral administration); assay type: in vivo, Donryu rats; conditions: for Effectiveness on Shay Ulcer (aggressive factors): Table 1; for inhibitory ratio (Shay ulcer): 18 hours after ligation
Protocol: as §1
In the same way as described above, gefarnate, a conventional anti-ulcer agent, was administered to the rats at a dosage of 100 mg/Kg.

drug ulcers = assay: Drug Ulcer Test (indomethacin, aspirin, phenylbutazone); assay type: in vivo, rats; conditions: for Effectiveness on Drug Ulcer (defensive factors): Table 1; for Inhibitory Ratio, Aspirin ulcer: aspirin 300 mg/Kg; for Inhibitory Ratio, Indomethacin ulcer: indomethacin 25 mg/Kg; for Inhibitory Ratio, Phenylbutazone ulcer: phenylbutazone 200 mg/Kg
Protocol: Female rats each weighing about 150 g (5 in each group) were starved for 20 hours, and then DV-1006 was administered to the rats. After one hour, 25 mg/Kg of indomethacin, 300 mg/Kg of aspirin and 200 mg/Kg of phenylbutazone, respectively, were administered orally to the rats and the rats were further starved for 5 hours. The stomach of each of the rats was removed, and the ulcer index was measured.
For comparison, the above procedure was repeated except that gefarnate and aluminum sucrose sulfate were used in their basic customary dosages.

acetic ulcers = assay: 10% Acetic Acid Ulcer Test; assay type: in vivo, Wistar rats; conditions: for Effectiveness on Acetic Ulcer (defensive factors): Table 1
Protocol: Each of the drugs shown in FIG. 1 was orally administered to the rats once a day for 8 days starting on the date on which the acetic acid was injected. On the ninth day the rats were killed under ether anaesthesia. The stomach of each rat was removed, and opened along the greater curvature. The ulcer index was measured by means of slide calipers, and then the glandular stomach tissue was homogenized by adding a suitable amount of a physiological salt solution, and centrifuged for 20 minutes at a rate of 12,000 rpm.

[3] = system: clamping-cortisone ulcers; assay: Clamping-Cortisone Ulcer Test; assay type: in vivo, rats; conditions: for Effectiveness on Clamping-Cortisone Ulcer (defensive factors): Table 1
Protocol: (§2) Each of the drugs shown in FIG. 2 was administered orally once in a day for 14 days starting on the day on which the aluminum metal plate was removed. On the fifteenth day, the rats were killed under ether anaesthesia, and the ulcer index and the mucopolysaccharase activity in the stomach tissue were measured.
Then, 5 mg/Kg of hydrocortisone acetate was intramuscularly injected into the rats once a day for 7 days starting on the day on which the aluminum metal plate was removed. Each of the agents shown in FIG. 3 was administered orally to the rats once a day for 11 days starting on the day on which the administration of hydrocortisone acetate was stopped.

clamping ulcers = assay: Clamping Ulcer Test; assay type: in vivo, Wistar male rats; conditions: for Effectiveness on Clamping Ulcer (defensive factors): Table 1
Protocol: as §2

pepsin secretion = assay: Pepsin Secretion Inhibition Test (beef bouillon pot-au-feu soup stimulating test); assay type: in vivo, Heidenhain pouch dogs; conditions: 150 mg/Kg orally, second stimulation 75 minutes later; FIG. 4
Protocol: After oral administration (first stimulation) of 70 ml of a mixture (100 ml) of 6 g of beef bouillon and 6 g of pot-au-feu soup, gastric juice was extracted every 15 minutes. When the secretion of gastric juice returned almost to the value before the stimulation, DV-1006 was orally administered at a dosage of 150 mg/Kg. The second stimulation was given 75 minutes later in the same way as in the first stimulation, and the amount of gastric juice secreted and the amount of pepsin secreted were measured [by the modified method of Anson-Maskey (see J. Gen. Physiol., 16, 59 (1932))] with the passage of time.

gastric juice = assay: Mode of activity: action on gastric juice; set-up: key: the symbol (+) shows that a particular agent has the indicated activity; the symbol (-) shows that the particular agent does not have the indicated activity; symbol (±) shows that the particular agent has a slight activity
Source text: As stated above, DV-1006 acts very strongly both on the aggressive factors and the defensive factors as compared with conventional anti-ulcer agents. […] In the treatment of peptic ulcers, the action of an agent on the gastric juice can be classified roughly into the following five categories: […]

carbachol stimulation = assay: Carbachol stimulation in the Gosh and Schild method; assay type: in vivo
Source text: (§3) Incidentally, it appears from the above table that anticholinergic agents produce […] those produced by DV-1006. […] From a pharmacological standpoint, DV-1006 has the activity selectively inhibiting the secretion of pepsin without affecting acidity and the activity of pepsin itself.

[4] = General anticholinergic activities
Source text: as §3

gastric ulcers = assay: Clinical test in gastric ulcer patients; assay type: in vivo
Protocol: Further, in order to confirm the anti-ulcer activities of the compounds of the general formula (I), clinical tests were also conducted using DV-1006 as a representative example of the compounds of the general formula (I). These clinical tests were performed on patients with gastric ulcers at National Zentsuji Hospital in Tokushima Prefecture, Japan.
30 gastric ulcer patients at the Internal Treatment Department of National Zentsuji Hospital in Tokushima Prefecture, Japan, who had been so diagnosed by X-ray and endoscopes, were treated for 8 weeks using an oral administration of DV-1006 at a dosage of 200 mg three times per day. At the end of the 8-week period, 21 patients were completely cured (70%), the condition of 7 patients had been alleviated (23%).

## NC[C@H]1CC[C@H](C(=O)Oc2ccc(C(=O)O)cc2)CC1
Shay ulcers [1]
  inhibition in vivo at 350 mg/kg: 71%

## NC[C@H]1CC[C@H](C(=O)Oc2ccc3ccccc3c2)CC1
Shay ulcers [1]
  inhibition in vivo at 350 mg/kg: 84%

## NC[C@H]1CC[C@H](C(=O)Oc2ccc(CC(N)C(=O)O)cc2)CC1 (stereo partly shown)
Shay ulcers [1]
  inhibition in vivo at 350 mg/kg: 71%

## NC[C@H]1CC[C@H](C(=O)Oc2ccccc2)CC1
Shay ulcers [1]
  inhibition in vivo at 350 mg/kg: 84%

## NC[C@H]1CC[C@H](C(=O)Oc2ccc(CCC(=O)O)cc2)CC1 [drawing 3]
Shay ulcers [1]
  inhibition in vivo at 350 mg/kg: 70%

## NC[C@H]1CC[C@H](C(=O)Oc2ccc(Cl)cc2)CC1
Shay ulcers [1]; 175 mg/Kg intraperitoneally in 0.5% CMC
  inhibition in vivo at 175 mg/kg: 62%

## CN1[C@@H]2CC[C@H]1C[C@@H](OC(=O)C(CO)c1ccccc1)C2 (stereo partly shown) [atropine sulfate]
Shay ulcers [2]
  Effectiveness on Shay Ulcer (aggressive factors): +
Drug ulcers
  Effectiveness on Drug Ulcer (defensive factors): -
Acetic ulcers
  Effectiveness on Acetic Ulcer (defensive factors): +

## NC[C@H]1CC[C@H](C(=O)Oc2ccc(-c3ccccc3)cc2)CC1
Shay ulcers [1]
  inhibition in vivo at 350 mg/kg: 58%

## aluminum sucrose sulfate
Shay ulcers [2]
  Effectiveness on Shay Ulcer (aggressive factors): +
Drug ulcers; 1000 mg/Kg p.o.
  Inhibitory Ratio, Aspirin ulcer: 38.6%
  Inhibitory Ratio, Indomethacin ulcer: 40.0%
  Inhibitory Ratio, Phenylbutazone ulcer: 38.0%
Drug ulcers
  Effectiveness on Drug Ulcer (defensive factors): +
[3]
  Effectiveness on Clamping-Cortisone Ulcer (defensive factors): -
Acetic ulcers
  Effectiveness on Acetic Ulcer (defensive factors): +
Clamping ulcers
  Effectiveness on Clamping Ulcer (defensive factors): +

## NC[C@H]1CC[C@H](C(=O)Oc2ccc(CCC(=O)O)cc2)CC1 [DV-1006, 4'-(2-carboxyethyl)phenyl.trans-4-aminomethylcyclohexane carboxylate]
Shay ulcers [2]; 300 mg/Kg orally, method of Adami et al.
  inhibitory ratio (Shay ulcer): 100%
Shay ulcers [2]
  Effectiveness on Shay Ulcer (aggressive factors): +
Pepsin secretion
  amount of gastric juice secreted: reduced
  pepsin secretion: markedly inhibited
Gastric juice; activity of controlling gastric juice
  Action on Gastric Juice: Amount of Gastric Juice: +
Gastric juice; inhibitory action on acids
  Action on Gastric Juice: Acids Activity: -
Gastric juice; inhibitory action on the activity of pepsin itself
  Action on Gastric Juice: Pepsin Activity: -
Gastric juice; inhibitory action on the secretion of acids
  Action on Gastric Juice: Acid Secretion: ±
Gastric juice; inhibitory action on the secretion of pepsin
  Action on Gastric Juice: Pepsin Secretion: +
Carbachol stimulation
  inhibitory activity on carbachol stimulation: does not exhibit any inhibitory activity
Drug ulcers; 300 mg/Kg p.o.
  Inhibitory Ratio, Aspirin ulcer: 65.3%
  Inhibitory Ratio, Indomethacin ulcer: 30.2%
  Inhibitory Ratio, Phenylbutazone ulcer: 70.0%
Drug ulcers
  Effectiveness on Drug Ulcer (defensive factors): +
[4]
  general anticholinergic activities: does not show general anticholinergic activities
[3]
  Effectiveness on Clamping-Cortisone Ulcer (defensive factors): +
[3]; model of chronic ulcers
  action on clamping-cortisone ulcers: especially strong action
[3]; oral once a day for 11 days, twentieth day, FIG. 3
  action on the activity of β-glucuronidase in stomach tissue: especially significant inhibitory action
Acetic ulcers; FIG. 1
  dose-response of action on acetic acid ulcers: showed a dose-response
Acetic ulcers
  Effectiveness on Acetic Ulcer (defensive factors): +
Acetic ulcers; glandular stomach tissue, ninth day, FIG. 1
  activity of the mucopolysaccharase in the ulcer portion: reduced
Acetic ulcers; oral once a day for 8 days, ninth day, FIG. 1
  action on ulcers caused by acetic acid (visual ulcer indices): marked inhibitory action; also recorded: especially strong action
Clamping ulcers
  Effectiveness on Clamping Ulcer (defensive factors): +
Clamping ulcers; oral once a day for 14 days, fifteenth day, FIG. 2
  action on β-glucuronidase in stomach tissue: especially significant inhibitory action
Gastric ulcers; oral 200 mg three times per day, 8 weeks
  side-effects in patients: No side-effects were observed
Gastric ulcers; orally for several days at 300 to 1200 mg/day
  curing effect on peptic ulcers: very marked curing effect

## NC[C@H]1CC[C@H](C(=O)Oc2ccc(C=CC(=O)O)cc2)CC1
Shay ulcers [1]
  inhibition in vivo at 350 mg/kg: 76%

## COc1cc(C=O)ccc1OC(=O)[C@H]1CC[C@H](CN)CC1
Shay ulcers [1]
  inhibition in vivo at 350 mg/kg: 84%

## CC(C)=CCC/C(C)=C/CC/C(C)=C/CCC(=O)OC/C=C(\C)CCC=C(C)C [gefarnate]
Shay ulcers [2]; 100 mg/Kg orally
  inhibitory ratio (Shay ulcer): 83%
Shay ulcers [2]
  Effectiveness on Shay Ulcer (aggressive factors): -
Drug ulcers; 100 mg/Kg p.o.
  Inhibitory Ratio, Aspirin ulcer: 42.8%
  Inhibitory Ratio, Indomethacin ulcer: 29.0%
  Inhibitory Ratio, Phenylbutazone ulcer: 31.5%
Drug ulcers
  Effectiveness on Drug Ulcer (defensive factors): +
[3]
  Effectiveness on Clamping-Cortisone Ulcer (defensive factors): +
Acetic ulcers
  Effectiveness on Acetic Ulcer (defensive factors): -
Clamping ulcers
  Effectiveness on Clamping Ulcer (defensive factors): +
